Active and inactive are the calls of the source. The rule behind the calls is not given here.
Tests used:
BaF3 = assay: Antileukemic activity against mouse BaF3 cells harbouring BCR-ABL1 T315I mutant transduced with 5-FU treated bone marrow xenografted in Balb/c mouse assessed as improvement in circulating leukocyte count at 100 mg/kg, po administered once daily measured upto 56 days; type: functional, organism-based; conditions: time <= 56.0 day
Ephrin type-B receptor 4 = Ephrin type-B receptor 4 (Homo sapiens, UniProt P54760); assay: Inhibition of human wild type EPHB4 using PolyEY as substrate preincubated for 2 hrs followed by ATP addition and measured every 2 mins for […] by spectrophotometric analysis
Misshapen-like kinase 1 = Misshapen-like kinase 1 (Homo sapiens, UniProt Q8N4C8); assay: Inhibition of human wild type MINK using RBER-CHKtide as substrate preincubated for 2 hrs followed by ATP addition and measured every 2 mins for […] by spectrophotometric analysis
[1] = biological target: Platelet-derived growth factor receptor alpha (Homo sapiens, UniProt P16234); assay: Inhibition of human wild type PDGFR alpha using Poly(Ala,Glu,Lys,Tyr)6:2:5:1 as substrate preincubated for 2 hrs followed by ATP addition and measured every 2 mins for […] by spectrophotometric analysis
[2] = biological target: Tyrosine-protein kinase Fes/Fps (Homo sapiens, UniProt P07332); assay: Inhibition of human wild type FES using PolyEY as substrate preincubated for 2 hrs followed by ATP addition and measured every 2 mins for […] by spectrophotometric analysis
[3] = biological target: Mitogen-activated protein kinase 14 (Homo sapiens, UniProt Q16539); assay: Inhibition of human wild type p38 alpha using ATF2 as substrate preincubated for 2 hrs followed by ATP addition and measured every 2 mins for […] by spectrophotometric analysis
[4] = biological target: Proto-oncogene tyrosine-protein kinase ROS (Homo sapiens, UniProt P08922); assay: Inhibition of human wild type ROS using Poly(Ala,Glu,Lys,Tyr)6:2:5:1 as substrate preincubated for 2 hrs followed by ATP addition and measured every 2 mins for […] by spectrophotometric analysis
[5] = biological target: STE20-like serine/threonine-protein kinase (Homo sapiens, UniProt Q9H2G2); assay: Inhibition of human wild type SLK using RB-S6P as substrate preincubated for 2 hrs followed by ATP addition and measured every 2 mins for […] by spectrophotometric analysis
Aurora kinase B = Aurora kinase B (Homo sapiens, UniProt Q96GD4); assay: Inhibition of human wild type AuroraB using bio-4xCHKT as substrate preincubated for 2 hrs followed by ATP addition and measured every 2 mins for […] by spectrophotometric analysis
[6] = biological target: Calcium/calmodulin-dependent protein kinase type 1 (Homo sapiens, UniProt Q14012); assay: Inhibition of human CAMK1alpha preincubated for 2 hrs followed by ATP addition and measured every 2 mins for […] by spectrophotometric analysis
[7] = biological target: Megakaryocyte-associated tyrosine-protein kinase (Homo sapiens, UniProt P42679); assay: Inhibition of human wild type CTK using PolyEY as substrate preincubated for 2 hrs followed by ATP addition and measured every 2 mins for […] by spectrophotometric analysis
[8] = biological target: Homeodomain-interacting protein kinase 1 (Homo sapiens, UniProt Q86Z02); assay: Inhibition of human wild type HIPK1 using RBER-CHKtide as substrate preincubated for 2 hrs followed by ATP addition and measured every 2 mins for […] by spectrophotometric analysis
Insulin receptor = Insulin receptor (Homo sapiens, UniProt P06213); assay: Inhibition of human wild type IR using Poly(Ala,Glu,Lys,Tyr)6:2:5:1 as substrate preincubated for 2 hrs followed by ATP addition and measured every 2 mins for […] by spectrophotometric analysis
[9] = biological target: Insulin receptor-related protein (Homo sapiens, UniProt P14616); assay: Inhibition of human wild type IRR using Poly(Ala,Glu,Lys,Tyr)6:2:5:1 as substrate preincubated for 2 hrs followed by ATP addition and measured every 2 mins for […] by spectrophotometric analysis
[10] = biological target: Tyrosine-protein kinase JAK3 (Homo sapiens, UniProt P52333); assay: Inhibition of human wild type JAK3 using Poly(Ala,Glu,Lys,Tyr)6:2:5:1 as substrate preincubated for 2 hrs followed by ATP addition and measured every 2 mins for […] by spectrophotometric analysis
[11] = biological target: Serine/threonine-protein kinase STK11 (Homo sapiens, UniProt Q15831); assay: Inhibition of human wild type LKB1 using RB-CTF as substrate preincubated for 2 hrs followed by ATP addition and measured every 2 mins for […] by spectrophotometric analysis
[12] = biological target: Serine/threonine-protein kinase mTOR (Homo sapiens, UniProt P42345); assay: Inhibition of human wild type mTOR using Casein as substrate preincubated for 2 hrs followed by ATP addition and measured every 2 mins for […] by spectrophotometric analysis
[13] = biological target: Mitogen-activated protein kinase 12 (Homo sapiens, UniProt P53778); assay: Inhibition of human wild type p38 gamma using RBER-IRStide as substrate preincubated for 2 hrs followed by ATP addition and measured every 2 mins for […] by spectrophotometric analysis
[14] = biological target: Mitogen-activated protein kinase 13 (Homo sapiens, UniProt O15264); assay: Inhibition of human wild type p38 delta using RBER-CHKtide as substrate preincubated for 2 hrs followed by ATP addition and measured every 2 mins for […] by spectrophotometric analysis
[15] = biological target: Phosphorylase b kinase gamma catalytic chain, skeletal muscle/heart isoform (Homo sapiens, UniProt Q16816); assay: Inhibition of human wild type PHKgamma1 using 3xChocktide-PKC([…]-[…]) as substrate preincubated for 2 hrs followed by ATP addition and measured every 2 mins for […] by spectrophotometric analysis
[16] = biological target: cGMP-dependent protein kinase 2 (Homo sapiens, UniProt Q13237); assay: Inhibition of human wild type PKG2 using RBER-GSK3(14to 27) as substrate preincubated for 2 hrs followed by ATP addition and measured every 2 mins for […] by spectrophotometric analysis
[17] = biological target: Receptor-interacting serine/threonine-protein kinase 2 (Homo sapiens, UniProt O43353); assay: Inhibition of human wild type RIPK2 using RBER-CHKtide as substrate preincubated for 2 hrs followed by ATP addition and measured every 2 mins for […] by spectrophotometric analysis
[18] = biological target: Serine/threonine-protein kinase SIK2 (Homo sapiens, UniProt Q9H0K1); assay: Inhibition of human wild type SIK2 using RBER-CHKtide as substrate preincubated for 2 hrs followed by ATP addition and measured every 2 mins for […] by spectrophotometric analysis
[19] = biological target: NUAK family SNF1-like kinase 2 (Homo sapiens, UniProt Q9H093); assay: Inhibition of human wild type SNARK using Histon H2B as substrate preincubated for 2 hrs followed by ATP addition and measured every 2 mins for […] by spectrophotometric analysis
[20] = biological target: Tyrosine-protein kinase ZAP-70 (Homo sapiens, UniProt P43403); assay: Inhibition of human wild type ZAP70 using PolyEY as substrate preincubated for 2 hrs followed by ATP addition and measured every 2 mins for […] by spectrophotometric analysis
[21] = biological target: Death-associated protein kinase 3 (Homo sapiens, UniProt O43293); assay: Inhibition of human wild type ZIPK using RBER-GSK3([…] to […]) as substrate preincubated for 2 hrs followed by ATP addition and measured every 2 mins for […] by spectrophotometric analysis
[22] = Toxicity in Balb/c mouse assessed as hindlimb paralysis; conditions: in vivo
[23] = biological target: Tyrosine-protein kinase ABL1 (Homo sapiens, UniProt P00519); conditions: Sf9, time 2.0 hrs
Chain of Tyrosine-protein kinase ABL1 (P00519 whole entry): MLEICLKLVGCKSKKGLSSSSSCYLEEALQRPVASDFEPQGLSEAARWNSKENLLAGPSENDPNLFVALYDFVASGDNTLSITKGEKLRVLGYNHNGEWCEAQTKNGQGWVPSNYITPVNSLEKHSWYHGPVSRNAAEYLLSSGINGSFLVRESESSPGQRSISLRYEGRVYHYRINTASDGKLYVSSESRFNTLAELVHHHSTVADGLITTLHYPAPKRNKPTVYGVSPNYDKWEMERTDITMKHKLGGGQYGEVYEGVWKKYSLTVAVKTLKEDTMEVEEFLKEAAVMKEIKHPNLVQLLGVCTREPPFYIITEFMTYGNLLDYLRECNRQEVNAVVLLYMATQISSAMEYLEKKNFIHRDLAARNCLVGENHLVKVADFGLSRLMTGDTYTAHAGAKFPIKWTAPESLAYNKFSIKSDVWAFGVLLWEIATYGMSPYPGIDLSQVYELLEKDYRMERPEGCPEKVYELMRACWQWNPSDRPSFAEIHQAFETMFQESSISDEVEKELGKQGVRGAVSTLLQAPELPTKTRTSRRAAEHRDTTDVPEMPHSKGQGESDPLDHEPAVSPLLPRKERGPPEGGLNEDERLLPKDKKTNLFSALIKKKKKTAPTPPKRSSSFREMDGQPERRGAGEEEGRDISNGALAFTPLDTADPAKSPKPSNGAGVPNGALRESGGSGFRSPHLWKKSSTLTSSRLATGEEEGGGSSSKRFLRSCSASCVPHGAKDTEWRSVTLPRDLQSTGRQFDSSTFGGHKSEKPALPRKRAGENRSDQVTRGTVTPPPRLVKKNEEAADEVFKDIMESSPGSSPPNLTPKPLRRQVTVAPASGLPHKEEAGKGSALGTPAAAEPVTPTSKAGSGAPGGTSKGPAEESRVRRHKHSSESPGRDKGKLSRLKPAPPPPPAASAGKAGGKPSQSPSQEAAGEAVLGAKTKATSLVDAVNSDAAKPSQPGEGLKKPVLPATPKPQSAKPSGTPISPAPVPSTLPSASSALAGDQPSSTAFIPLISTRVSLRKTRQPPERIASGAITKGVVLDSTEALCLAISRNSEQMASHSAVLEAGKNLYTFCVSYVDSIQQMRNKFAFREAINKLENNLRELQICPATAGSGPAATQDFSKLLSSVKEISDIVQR

Chain of Megakaryocyte-associated tyrosine-protein kinase (P42679 whole entry): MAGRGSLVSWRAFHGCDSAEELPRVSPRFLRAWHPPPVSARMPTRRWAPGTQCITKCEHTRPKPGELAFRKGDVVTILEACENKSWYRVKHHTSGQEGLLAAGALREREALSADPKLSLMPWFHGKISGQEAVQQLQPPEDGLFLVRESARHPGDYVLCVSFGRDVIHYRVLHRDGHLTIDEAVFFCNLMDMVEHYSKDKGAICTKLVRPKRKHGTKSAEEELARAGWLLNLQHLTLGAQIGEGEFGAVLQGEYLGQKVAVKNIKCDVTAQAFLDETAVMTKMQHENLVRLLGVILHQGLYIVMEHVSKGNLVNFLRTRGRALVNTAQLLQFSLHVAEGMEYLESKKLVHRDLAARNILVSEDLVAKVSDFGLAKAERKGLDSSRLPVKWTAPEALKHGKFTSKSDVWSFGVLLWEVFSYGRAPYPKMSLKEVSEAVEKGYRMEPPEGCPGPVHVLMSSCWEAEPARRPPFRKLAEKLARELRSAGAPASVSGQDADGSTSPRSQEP
Chain of Mitogen-activated protein kinase 14 (Q16539 whole entry): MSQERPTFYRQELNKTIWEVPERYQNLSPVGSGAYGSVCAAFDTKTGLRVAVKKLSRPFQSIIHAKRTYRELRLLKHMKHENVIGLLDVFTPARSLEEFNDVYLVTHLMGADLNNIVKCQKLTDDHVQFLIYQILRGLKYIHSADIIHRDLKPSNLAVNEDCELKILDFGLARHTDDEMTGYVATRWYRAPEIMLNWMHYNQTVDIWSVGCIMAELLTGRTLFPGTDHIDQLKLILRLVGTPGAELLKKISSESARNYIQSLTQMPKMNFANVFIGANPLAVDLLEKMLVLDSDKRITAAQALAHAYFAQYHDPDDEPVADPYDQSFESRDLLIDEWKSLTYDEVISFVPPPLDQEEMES
Chain of Aurora kinase B (Q96GD4 whole entry): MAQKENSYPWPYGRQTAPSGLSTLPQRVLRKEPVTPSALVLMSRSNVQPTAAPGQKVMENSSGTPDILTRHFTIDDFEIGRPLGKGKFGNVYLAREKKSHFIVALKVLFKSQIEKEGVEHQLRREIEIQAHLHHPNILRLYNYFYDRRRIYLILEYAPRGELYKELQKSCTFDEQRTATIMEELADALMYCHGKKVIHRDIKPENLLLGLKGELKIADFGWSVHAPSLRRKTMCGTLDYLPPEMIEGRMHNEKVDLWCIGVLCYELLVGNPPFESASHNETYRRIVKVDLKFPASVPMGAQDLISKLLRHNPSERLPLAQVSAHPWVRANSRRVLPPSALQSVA
Chain of Platelet-derived growth factor receptor alpha (P16234 whole entry): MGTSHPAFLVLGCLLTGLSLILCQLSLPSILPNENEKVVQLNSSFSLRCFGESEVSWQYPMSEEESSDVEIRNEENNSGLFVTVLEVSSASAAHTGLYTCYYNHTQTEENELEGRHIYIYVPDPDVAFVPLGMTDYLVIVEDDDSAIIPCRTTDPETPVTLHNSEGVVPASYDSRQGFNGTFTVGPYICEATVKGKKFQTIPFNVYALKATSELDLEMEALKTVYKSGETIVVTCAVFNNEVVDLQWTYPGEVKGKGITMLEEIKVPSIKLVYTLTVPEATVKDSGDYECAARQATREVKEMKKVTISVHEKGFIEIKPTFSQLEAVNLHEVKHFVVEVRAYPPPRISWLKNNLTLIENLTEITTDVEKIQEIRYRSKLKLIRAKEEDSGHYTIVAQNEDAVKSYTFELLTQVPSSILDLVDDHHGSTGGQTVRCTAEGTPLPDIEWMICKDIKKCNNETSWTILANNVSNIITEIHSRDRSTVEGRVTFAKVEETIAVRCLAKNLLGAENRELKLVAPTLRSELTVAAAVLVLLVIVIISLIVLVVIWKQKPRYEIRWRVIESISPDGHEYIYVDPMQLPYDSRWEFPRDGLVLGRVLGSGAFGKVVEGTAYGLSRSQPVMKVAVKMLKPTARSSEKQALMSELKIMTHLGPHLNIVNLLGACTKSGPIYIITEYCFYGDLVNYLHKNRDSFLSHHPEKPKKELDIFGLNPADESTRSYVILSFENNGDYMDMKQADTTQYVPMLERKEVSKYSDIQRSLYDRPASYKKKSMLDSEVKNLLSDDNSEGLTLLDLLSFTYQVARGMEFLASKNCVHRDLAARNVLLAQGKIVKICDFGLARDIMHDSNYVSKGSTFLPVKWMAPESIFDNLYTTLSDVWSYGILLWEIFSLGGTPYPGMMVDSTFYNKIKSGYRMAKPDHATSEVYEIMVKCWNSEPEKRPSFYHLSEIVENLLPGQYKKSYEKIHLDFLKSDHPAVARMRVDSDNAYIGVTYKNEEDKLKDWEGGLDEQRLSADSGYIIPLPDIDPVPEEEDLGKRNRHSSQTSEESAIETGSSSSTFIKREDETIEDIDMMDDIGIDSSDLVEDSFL
Chain of Serine/threonine-protein kinase STK11 (Q15831 whole entry): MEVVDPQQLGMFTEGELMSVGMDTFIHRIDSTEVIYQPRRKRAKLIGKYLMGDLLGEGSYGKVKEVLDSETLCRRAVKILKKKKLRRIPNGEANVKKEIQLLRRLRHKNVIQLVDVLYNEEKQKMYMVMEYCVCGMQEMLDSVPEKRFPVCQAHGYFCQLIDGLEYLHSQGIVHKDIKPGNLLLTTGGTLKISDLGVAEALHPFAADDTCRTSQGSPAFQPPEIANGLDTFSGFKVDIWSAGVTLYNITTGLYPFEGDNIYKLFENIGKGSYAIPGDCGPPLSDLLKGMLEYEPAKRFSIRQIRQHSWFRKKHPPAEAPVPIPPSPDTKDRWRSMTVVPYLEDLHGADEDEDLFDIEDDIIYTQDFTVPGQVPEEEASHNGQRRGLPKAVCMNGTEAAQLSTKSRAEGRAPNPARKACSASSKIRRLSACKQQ
Chain of Ephrin type-B receptor 4 (P54760 whole entry): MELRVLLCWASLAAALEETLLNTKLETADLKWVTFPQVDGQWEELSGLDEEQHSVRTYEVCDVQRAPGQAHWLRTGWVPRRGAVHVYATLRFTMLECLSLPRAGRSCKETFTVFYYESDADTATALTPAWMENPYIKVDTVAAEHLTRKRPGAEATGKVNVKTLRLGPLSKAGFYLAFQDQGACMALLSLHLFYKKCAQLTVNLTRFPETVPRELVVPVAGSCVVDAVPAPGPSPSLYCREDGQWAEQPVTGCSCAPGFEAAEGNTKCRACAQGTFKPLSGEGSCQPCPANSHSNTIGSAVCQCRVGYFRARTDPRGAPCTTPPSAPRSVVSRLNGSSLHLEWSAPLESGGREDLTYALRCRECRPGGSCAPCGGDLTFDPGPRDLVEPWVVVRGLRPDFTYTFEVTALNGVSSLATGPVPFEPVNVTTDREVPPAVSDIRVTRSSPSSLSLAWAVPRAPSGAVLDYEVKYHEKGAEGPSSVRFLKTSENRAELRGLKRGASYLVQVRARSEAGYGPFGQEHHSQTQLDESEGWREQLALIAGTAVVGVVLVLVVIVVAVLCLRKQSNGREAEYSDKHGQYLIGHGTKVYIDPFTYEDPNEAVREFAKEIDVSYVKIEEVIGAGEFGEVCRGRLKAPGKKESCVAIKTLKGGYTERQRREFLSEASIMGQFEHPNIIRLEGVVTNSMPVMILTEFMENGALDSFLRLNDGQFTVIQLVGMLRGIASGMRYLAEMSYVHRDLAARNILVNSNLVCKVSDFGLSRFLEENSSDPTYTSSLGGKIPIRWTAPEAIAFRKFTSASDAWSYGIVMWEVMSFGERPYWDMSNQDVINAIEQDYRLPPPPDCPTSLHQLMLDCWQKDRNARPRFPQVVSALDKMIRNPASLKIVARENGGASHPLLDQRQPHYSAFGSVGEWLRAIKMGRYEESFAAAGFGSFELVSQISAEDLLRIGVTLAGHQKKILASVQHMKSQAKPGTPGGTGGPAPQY

IC50 (Ephrin type-B receptor 4): 0.064 µM | IC50 (Misshapen-like kinase 1): 0.011 µM | IC50 [1]: 0.07 µM | IC50 [2]: 0.16 µM | IC50 [3]: 0.11 µM | IC50 [4]: 0.34 µM | IC50 [5]: 0.67 µM | IC50 (Aurora kinase B): > 1 µM | IC50 [6]: > 1 µM | IC50 [7]: > 1 µM | IC50 [8]: > 1 µM | IC50 (Insulin receptor): > 1 µM | IC50 [9]: > 1 µM | IC50 [10]: > 1 µM | IC50 [11]: > 1 µM | IC50 [12]: > 1 µM | IC50 [13]: > 1 µM | IC50 [14]: > 1 µM | IC50 [15]: > 1 µM | IC50 [16]: > 1 µM | IC50 [17]: > 1 µM | IC50 [18]: > 1 µM | IC50 [19]: > 1 µM | IC50 [20]: > 1 µM | T1/2 [23]: 6.53 h
SMILES: CNC(=O)c1cc(Oc2ccc(NC(=O)Nc3cc(C(C)(C)C)nn3-c3ccc4ncccc4c3)c(F)c2)ccn1 [REBASTINIB]
Activity (BaF3): Active | IC50 [21]: > 1 µM | Activity [22]: Toxic
